Reference: US20230143604A1, “QW DOSING OF GIP RECEPTOR AGONIST PEPTIDE COMPOUNDS AND USES THEREOF” (TAKEDA PHARMACEUTICAL COMPANY LIMITED, priority 2020, published 2023)
Starred links: 1 amine or outer side, 2 acyl side, 3 side chain; linkers in the order of their positions; H or OH if unused. Non-standard residues stand in square brackets, D forms with d. Residues, ends and D or L forms follow the SMILES beside them. Groups on a side chain read outwards from the residue. *: point of attachment. C18 diacid = O=C(O)CCCCCCCCCCCCCCCCC(=O)*; C17 diacid = O=C(O)CCCCCCCCCCCCCCCC(=O)*; γGlu = O=C(O)[C@H](CCC(=O)[*:2])N[*:1]; NMeY = CN[C@@H](Cc1ccc(O)cc1)C(=O)O; AEEA = NCCOCCOCC(=O)O; Aib = CC(C)(N)C(=O)O

Assay: Solubility in phosphate buffer pH 7.4
Conditions: pH 7.4, aqueous buffer
Procedure, shortened: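 3 mg of peptide treated with 100 μL portions of 200 mM phosphate buffer pH 7.4, sonicating/vortexing up to 1 min, with further buffer added until fully dissolved. Solubility then quantified by HPLC.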

[1] = pH 7.4 Phosphate Buffer - Solubility, 200 mM Phosphate buffer pH 7.4

| Structure (SMILES) | solubility [1] | solubility |
| --- | --- | --- |
| CC[C@H](C)[C@H](NC(=O)[C@H](Cc1ccccc1)NC(=O)[C@@H](NC(=O)CNC(=O)[C@H](CCC(=O)O)NC(=O)C(C)(C)NC(=O)[C@H](Cc1ccc(O)cc1)NC)[C@@H](C)O)C(=O)N[C@@H](CO)C(=O)N[C@@H](CC(=O)O)C(=O)N[C@@H](Cc1ccc(O)cc1)C(=O)N[C@@H](CO)C(=O)N[C@H](C(=O)NC(C)(C)C(=O)N[C@@H](CCCCNC(=O)CNC(=O)CNC(=O)CNC(=O)CNC(=O)CNC(=O)CC[C@H](NC(=O)CCCCCCCCCCCCCCCCC(=O)O)C(=O)O)C(=O)N[C@@H](CC(=O)O)C(=O)N[C@@H](CCCNC(=N)N)C(=O)NC(C)(C)C(=O)N[C@@H](C)C(=O)N[C@@H](CCC(N)=O)C(=O)NC(C)(C)C(=O)N[C@@H](CC(N)=O)C(=O)N[C@@H](Cc1ccccc1)C(=O)N[C@H](C(=O)N[C@@H](CC(N)=O)C(=O)N[C@@H](Cc1c[nH]c2ccccc12)C(=O)N[C@@H](CC(C)C)C(=O)N[C@@H](CC(C)C)C(=O)N[C@@H](C)C(=O)N[C@@H](CCC(N)=O)C(=O)N[C@@H](CCCNC(=N)N)C(=O)N1CCC[C@H]1C(=O)N[C@@H](CO)C(=O)N[C@@H](CO)C(=O)NCC(=O)N[C@@H](C)C(=O)N1CCC[C@H]1C(=O)N1CCC[C@H]1C(=O)N1CCC[C@H]1C(=O)N[C@@H](CO)C(N)=O)C(C)C)[C@@H](C)CC [Compound 262] | < 6000 µg/mL | – |
| CC[C@H](C)[C@H](NC(=O)[C@H](Cc1ccccc1)NC(=O)[C@@H](NC(=O)CNC(=O)[C@H](CCC(=O)O)NC(=O)C(C)(C)NC(=O)[C@H](Cc1ccc(O)cc1)NC)[C@@H](C)O)C(=O)N[C@@H](CO)C(=O)N[C@@H](CC(=O)O)C(=O)N[C@@H](Cc1ccc(O)cc1)C(=O)N[C@@H](CO)C(=O)N[C@H](C(=O)NC(C)(C)C(=O)N[C@@H](CCCCNC(=O)COCCOCCNC(=O)COCCOCCNC(=O)CC[C@H](NC(=O)CCCCCCCCCCCCCCCC(=O)O)C(=O)O)C(=O)N[C@@H](CC(=O)O)C(=O)N[C@@H](CCCNC(=N)N)C(=O)NC(C)(C)C(=O)N[C@@H](C)C(=O)N[C@@H](CCC(N)=O)C(=O)NC(C)(C)C(=O)N[C@@H](CC(N)=O)C(=O)N[C@@H](Cc1ccccc1)C(=O)N[C@H](C(=O)N[C@@H](CC(N)=O)C(=O)N[C@@H](Cc1c[nH]c2ccccc12)C(=O)N[C@@H](CC(C)C)C(=O)N[C@@H](CC(C)C)C(=O)N[C@@H](C)C(=O)N[C@@H](CCC(N)=O)C(=O)N[C@@H](CCCNC(=N)N)C(=O)N1CCC[C@H]1C(=O)N[C@@H](CO)C(=O)N[C@@H](CO)C(=O)NCC(=O)N[C@@H](C)C(=O)N1CCC[C@H]1C(=O)N1CCC[C@H]1C(=O)N1CCC[C@H]1C(=O)N[C@@H](CO)C(N)=O)C(C)C)[C@@H](C)CC [Compound 263] (H-[NMeY][Aib]EGTFISDYSI[Aib]K([AEEA-AEEA-γGlu-C17 diacid])DR[Aib]AQ[Aib]NFVNWLLAQRPSSGAPPPS-NH2) | ≥ 7500 µg/mL | – |
| CC[C@H](C)[C@H](NC(=O)[C@H](Cc1ccccc1)NC(=O)[C@@H](NC(=O)CNC(=O)[C@H](CCC(=O)O)NC(=O)C(C)(C)NC(=O)[C@H](Cc1ccc(O)cc1)NC)[C@@H](C)O)C(=O)N[C@@H](CO)C(=O)N[C@@H](CC(=O)O)C(=O)N[C@@H](Cc1ccc(O)cc1)C(=O)N[C@@H](CO)C(=O)N[C@H](C(=O)NC(C)(C)C(=O)N[C@@H](CCCCNC(=O)CNC(=O)CNC(=O)CNC(=O)CNC(=O)CNC(=O)CC[C@H](NC(=O)CC[C@H](NC(=O)CCCCCCCCCCCCCCCC(=O)O)C(=O)O)C(=O)O)C(=O)N[C@@H](CC(=O)O)C(=O)N[C@@H](CCCNC(=N)N)C(=O)NC(C)(C)C(=O)N[C@@H](C)C(=O)N[C@@H](CCC(N)=O)C(=O)NC(C)(C)C(=O)N[C@@H](CC(N)=O)C(=O)N[C@@H](Cc1ccccc1)C(=O)N[C@H](C(=O)N[C@@H](CC(N)=O)C(=O)N[C@@H](Cc1c[nH]c2ccccc12)C(=O)N[C@@H](CC(C)C)C(=O)N[C@@H](CC(C)C)C(=O)N[C@@H](C)C(=O)N[C@@H](CCC(N)=O)C(=O)N[C@@H](CCCNC(=N)N)C(N)=O)C(C)C)[C@@H](C)CC [Compound 264] | – | < 6000 µg/mL |
| CC[C@H](C)[C@H](NC(=O)[C@H](Cc1ccccc1)NC(=O)[C@@H](NC(=O)CNC(=O)[C@H](CCC(=O)O)NC(=O)C(C)(C)NC(=O)[C@H](Cc1ccc(O)cc1)NC)[C@@H](C)O)C(=O)N[C@@H](CO)C(=O)N[C@@H](CC(=O)O)C(=O)N[C@@H](Cc1ccc(O)cc1)C(=O)N[C@@H](CO)C(=O)N[C@H](C(=O)NC(C)(C)C(=O)N[C@@H](CCCCNC(=O)CNC(=O)CNC(=O)CNC(=O)CNC(=O)CNC(=O)CC[C@H](NC(=O)CCCCCCCCCCCCCCCC(=O)O)C(=O)O)C(=O)N[C@@H](CC(=O)O)C(=O)N[C@@H](CCCNC(=N)N)C(=O)NC(C)(C)C(=O)N[C@@H](C)C(=O)N[C@@H](CCC(N)=O)C(=O)NC(C)(C)C(=O)N[C@@H](CC(=O)O)C(=O)N[C@@H](Cc1ccccc1)C(=O)N[C@H](C(=O)N[C@@H](CC(N)=O)C(=O)N[C@@H](Cc1c[nH]c2ccccc12)C(=O)N[C@@H](CC(C)C)C(=O)N[C@@H](CC(C)C)C(=O)N[C@@H](C)C(=O)N[C@@H](CCC(N)=O)C(=O)N[C@@H](CCCNC(=N)N)C(N)=O)C(C)C)[C@@H](C)CC [Compound 265] | – | ≥ 7500 µg/mL |
| CC[C@H](C)[C@H](NC(=O)[C@H](CO)NC(=O)[C@H](Cc1ccc(O)cc1)NC(=O)[C@H](CC(=O)O)NC(=O)[C@H](CO)NC(=O)[C@@H](NC(=O)[C@H](Cc1ccccc1)NC(=O)[C@@H](NC(=O)CNC(=O)[C@H](CCC(=O)O)NC(=O)C(C)(C)NC(=O)[C@H](Cc1ccc(O)cc1)NC)[C@@H](C)O)[C@@H](C)CC)C(=O)N[C@@H](C)C(=O)N[C@@H](CC(C)C)C(=O)N[C@@H](CC(=O)O)C(=O)N[C@@H](CCCNC(=N)N)C(=O)N[C@@H](CCCCNC(=O)COCCOCCNC(=O)COCCOCCNC(=O)CC[C@H](NC(=O)CCCCCCCCCCCCCCCC(=O)O)C(=O)O)C(=O)N[C@@H](C)C(=O)N[C@@H](CCC(N)=O)C(=O)NC(C)(C)C(=O)N[C@@H](CC(N)=O)C(=O)N[C@@H](Cc1ccccc1)C(=O)N[C@H](C(=O)N[C@@H](CC(N)=O)C(=O)N[C@@H](Cc1c[nH]c2ccccc12)C(=O)N[C@@H](CC(C)C)C(=O)N[C@@H](CC(C)C)C(=O)N[C@@H](C)C(=O)N[C@@H](CCC(N)=O)C(=O)N[C@@H](CCCNC(=N)N)C(=O)N1CCC[C@H]1C(=O)N[C@@H](CO)C(=O)N[C@@H](CO)C(=O)NCC(=O)N[C@@H](C)C(=O)N1CCC[C@H]1C(=O)N1CCC[C@H]1C(=O)N1CCC[C@H]1C(=O)N[C@@H](CO)C(N)=O)C(C)C [Compound 266] (H-[NMeY][Aib]EGTFISDYSIALDRK([AEEA-AEEA-γGlu-C17 diacid])AQ[Aib]NFVNWLLAQRPSSGAPPPS-NH2) | < 6000 µg/mL | – |
| CC[C@H](C)[C@H](NC(=O)[C@H](Cc1ccccc1)NC(=O)[C@@H](NC(=O)CNC(=O)[C@H](CCC(=O)O)NC(=O)C(C)(C)NC(=O)[C@H](Cc1ccc(O)cc1)NC)[C@@H](C)O)C(=O)N[C@@H](CO)C(=O)N[C@@H](CC(=O)O)C(=O)N[C@@H](Cc1ccc(O)cc1)C(=O)N[C@@H](CO)C(=O)N[C@H](C(=O)NC(C)(C)C(=O)N[C@@H](CC(C)C)C(=O)N[C@@H](CC(=O)O)C(=O)N[C@@H](CCCNC(=N)N)C(=O)NC(C)(C)C(=O)N[C@@H](C)C(=O)N[C@@H](CCC(N)=O)C(=O)NC(C)(C)C(=O)N[C@@H](CCCCNC(=O)COCCOCCNC(=O)COCCOCCNC(=O)CC[C@H](NC(=O)CC[C@H](NC(=O)CCCCCCCCCCCCCCCCC(=O)O)C(=O)O)C(=O)O)C(=O)N[C@@H](Cc1ccccc1)C(=O)N[C@H](C(=O)N[C@@H](CC(N)=O)C(=O)N[C@@H](Cc1c[nH]c2ccccc12)C(=O)N[C@@H](CC(C)C)C(=O)N[C@@H](CC(C)C)C(=O)N[C@@H](C)C(=O)N[C@@H](CCC(N)=O)C(=O)N[C@@H](CCCNC(=N)N)C(N)=O)C(C)C)[C@@H](C)CC [Compound 267] (H-[NMeY][Aib]EGTFISDYSI[Aib]LDR[Aib]AQ[Aib]K([AEEA-AEEA-γGlu-γGlu-C18 diacid])FVNWLLAQR-NH2) | – | < 6000 µg/mL |
| CC[C@H](C)[C@H](NC(=O)[C@H](CO)NC(=O)[C@H](Cc1ccc(O)cc1)NC(=O)[C@H](CC(=O)O)NC(=O)[C@H](CO)NC(=O)[C@@H](NC(=O)[C@H](Cc1ccccc1)NC(=O)[C@@H](NC(=O)CNC(=O)[C@H](CCC(=O)O)NC(=O)C(C)(C)NC(=O)[C@H](Cc1ccc(O)cc1)NC)[C@@H](C)O)[C@@H](C)CC)C(=O)N[C@@H](C)C(=O)N[C@@H](CC(C)C)C(=O)N[C@@H](CC(=O)O)C(=O)N[C@@H](CCCNC(=N)N)C(=O)NC(C)(C)C(=O)N[C@@H](CCCCNC(=O)COCCOCCNC(=O)COCCOCCNC(=O)CC[C@H](NC(=O)CCCCCCCCCCCCCCCC(=O)O)C(=O)O)C(=O)N[C@@H](CCC(N)=O)C(=O)NC(C)(C)C(=O)N[C@@H](CC(N)=O)C(=O)N[C@@H](Cc1ccccc1)C(=O)N[C@H](C(=O)N[C@@H](CC(N)=O)C(=O)N[C@@H](Cc1c[nH]c2ccccc12)C(=O)N[C@@H](CC(C)C)C(=O)N[C@@H](CC(C)C)C(=O)N[C@@H](C)C(=O)N[C@@H](CCC(N)=O)C(=O)N[C@@H](CO)C(=O)N1CCC[C@H]1C(=O)N[C@@H](CO)C(=O)N[C@@H](CO)C(=O)NCC(=O)N[C@@H](C)C(=O)N1CCC[C@H]1C(=O)N1CCC[C@H]1C(=O)N1CCC[C@H]1C(=O)N[C@@H](CO)C(N)=O)C(C)C [Compound 268] (H-[NMeY][Aib]EGTFISDYSIALDR[Aib]K([AEEA-AEEA-γGlu-C17 diacid])Q[Aib]NFVNWLLAQSPSSGAPPPS-NH2) | ≥ 10000 µg/mL | – |
| CC[C@H](C)[C@H](NC(=O)[C@H](CO)NC(=O)[C@H](Cc1ccc(O)cc1)NC(=O)[C@H](CC(=O)O)NC(=O)[C@H](CO)NC(=O)[C@@H](NC(=O)[C@H](Cc1ccccc1)NC(=O)[C@@H](NC(=O)CNC(=O)[C@H](CCC(=O)O)NC(=O)C(C)(C)NC(=O)[C@H](Cc1ccc(O)cc1)NC)[C@@H](C)O)[C@@H](C)CC)C(=O)N[C@@H](C)C(=O)N[C@@H](CC(C)C)C(=O)N[C@@H](CC(=O)O)C(=O)N[C@@H](CCCNC(=N)N)C(=O)NC(C)(C)C(=O)N[C@@H](C)C(=O)N[C@@H](CCC(N)=O)C(=O)NC(C)(C)C(=O)N[C@@H](CCCCNC(=O)COCCOCCNC(=O)COCCOCCNC(=O)CC[C@H](NC(=O)CC[C@H](NC(=O)CCCCCCCCCCCCCCCCC(=O)O)C(=O)O)C(=O)O)C(=O)N[C@@H](Cc1ccccc1)C(=O)N[C@H](C(=O)N[C@@H](CC(N)=O)C(=O)N[C@@H](Cc1c[nH]c2ccccc12)C(=O)N[C@@H](CC(C)C)C(=O)N[C@@H](CC(C)C)C(=O)N[C@@H](C)C(=O)N[C@@H](CCC(N)=O)C(=O)N[C@@H](CCCNC(=N)N)C(N)=O)C(C)C [Compound 269] (H-[NMeY][Aib]EGTFISDYSIALDR[Aib]AQ[Aib]K([AEEA-AEEA-γGlu-γGlu-C18 diacid])FVNWLLAQR-NH2) | – | ≥ 7500 µg/mL |
